The record followed here is patent publication US7550485B2, “Substituted N-heterocycle derivatives and methods of their use” (Wyeth, priority 2003, dated 2009).

The target in this test is T1, hNET (Homo sapiens, UniProt P23975).
T1 construct: expressed in transfected cells
Kind of test: Norepinephrine (NE) uptake assay in MDCK-Net6 cells stably transfected with human hNET. The test is classed as cell-based. The settings on record: [3H]NE uptake; for inhibition at 1 µM: MDCK-Net6, 1 μM test compound; for EC50: test range 1 to 10,000 nM. The method, boiled down:
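MDCK-Net6 cells preincubated 20 min at 37 °C with compound (1 to 10,000 nM) in HEPES buffer pH 7.4 with pargyline and ascorbate, then 5 min [3H]NE uptake (120 nM final). Lysed cells counted by scintillation; 1 μM desipramine defined minimum uptake; EC50 from logistic fit of pooled data.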

Where a name gives a salt, the structure may show the parent alone.

T1 sequence (P23975 whole entry): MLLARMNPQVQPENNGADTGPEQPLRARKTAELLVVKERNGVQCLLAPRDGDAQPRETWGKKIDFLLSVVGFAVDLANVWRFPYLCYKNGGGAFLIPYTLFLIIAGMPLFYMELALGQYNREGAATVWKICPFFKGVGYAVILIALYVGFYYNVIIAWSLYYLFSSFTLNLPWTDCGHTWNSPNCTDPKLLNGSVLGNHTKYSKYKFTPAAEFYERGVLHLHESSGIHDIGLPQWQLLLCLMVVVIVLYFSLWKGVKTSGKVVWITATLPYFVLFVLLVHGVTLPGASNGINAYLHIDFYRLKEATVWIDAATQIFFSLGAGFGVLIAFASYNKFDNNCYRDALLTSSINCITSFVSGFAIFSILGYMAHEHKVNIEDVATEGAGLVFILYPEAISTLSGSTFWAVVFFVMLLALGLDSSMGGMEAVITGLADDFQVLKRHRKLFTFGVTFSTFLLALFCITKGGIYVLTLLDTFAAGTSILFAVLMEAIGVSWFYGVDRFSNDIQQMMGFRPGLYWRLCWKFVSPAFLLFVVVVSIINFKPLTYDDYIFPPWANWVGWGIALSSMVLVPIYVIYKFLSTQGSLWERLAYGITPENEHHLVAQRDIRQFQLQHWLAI

As to `COc1ccc2cc([C@@H](CN3CCC(N4CCCCC4)CC3)C3(O)CCCCC3)ccc2c1` (single isomer, unassigned) [Example 353, dihydrochloride], at 1 µM the inhibition was 67% and the midpoint of the response, the EC50, lay at 320 nM. `CNC1CCN(CC(c2ccc3ccccc3c2)C2(O)CCCCC2)CC1` (stereo not drawn) [Example 49, 1-[2-[4-(methylamino)piperidin-1-yl]-1-(2-naphthyl)ethyl]cyclohexanol dihydrochloride] registered an inhibition at 1 µM of 39%. Regarding `NC1CCN(CC(c2cccc(Cl)c2)C2(O)CCC3CCCCC3C2)CC1` (stereo not drawn) [Example 327, 2-[2-(4-aminopiperidin-1-yl-1-(3-chlorophenyl)ethyl]decahydronaphthalen-2-oldihydrochloride], 1 µM produced 3% inhibition. Regarding `N[C@H]1CCN(CC(c2cccc(C(F)(F)F)c2)C2(O)CCCCC2)C1` (stereo partly drawn) [Example 221, 1-{2-[(3S)-3-aminopyrrolidin-1-yl]-1-[3-(trifluoromethyl)phenyl]ethyl}cyclohexanol dihydrochloride], the inhibition at 1 µM was 63.9%.

For `NC1CCN(CC(c2cccc(C(F)(F)F)c2)C2(O)CCCCC2)CC1` (stereo not drawn) [Example 39, 1-{2-(4-aminopiperidin-1-yl)-1-[3-(trifluoromethyl)phenyl]ethyl}cyclohexanol dihydrochloride], testing at 1 µM gave an inhibition of 56%. Regarding `CNC1CCN(CC(c2cccc(C(F)(F)F)c2)C2(O)CCCCC2)C1` (stereo in doubt) [Example 223, 1-{2-[(3R)-3-(methylamino)pyrrolidin-1-yl]-1-[3-(trifluoromethyl)phenyl]ethyl}cyclohexanol dihydrochloride], the “% Inhibition @ 1 μM (hNET)” value (1 μM test compound, dihydrochloride, 1 µM) was determined as 41.2%. Turning to `CN[C@@H]1CCN(CC(c2cccc(OC(F)(F)F)c2)C2(O)CCCCC2)C1` (stereo partly drawn) [Example 218, 1-{2-[(3R)-3-(methylamino)pyrrolidin-1-yl]-1-[3-(trifluoromethoxy)phenyl]ethyl}cyclohexanol dihydrochloride], the inhibition at 1 µM is 42%. In turn, `COc1ccc(C(CN2CCC(N(C)C)CC2)C2(O)CCCCC2)cc1Br` (stereo not drawn) [Example 318, 1-{1-(3-bromo-4-methoxyphenyl)-2-[4-(dimethylamino)piperidin-1-yl]ethyl}cyclohexanol dihydrochloride] had an inhibition at 1 µM of 84%. The molecule `N[C@H]1CCN(C[C@H](c2cccc(Cl)c2)C2(O)CCCCC2)C1` [Example 387, 1-[(1S)-2-[(3S)-3-aminopyrrolidin-1-yl]-1-(3-chlorophenyl)ethyl]cyclohexanol dihydrochloride] registered a concentration giving a half-maximal response (EC50) of 410 nM. `NC1CCN(CC(c2cccc(Cl)c2)C2(O)CCCCC2)CC1` (stereo not drawn) [Example 35, 1-[2-(4-aminopiperidin-1-yl)-1-(3-chlorophenyl)ethyl]cyclohexanol dihydrochloride] registered an inhibition at 1 µM of 59% and an EC50 of 52 nM. Take `CNC1CCN(CC(c2ccc(Cl)c(Cl)c2)C2(O)CCCCC2)CC1` (stereo not drawn) [Example 13, 1-{1-(3,4-dichlorophenyl)-2-[4-(methylamino)piperidin-1-yl]ethyl}cyclohexanol dihydrochloride]: 1 µM produced 89% inhibition and the midpoint of the response, the EC50, lay at 210 nM. On to `NC1CCN(CC(c2ccc(OC(F)(F)F)cc2)C2(O)CCCCC2)CC1` (stereo not drawn) [Example 303, 1-{2-(4-aminopiperidin-1-yl)-1-[4-(trifluoromethoxy)phenyl]ethyl}cyclohexanol dihydrochloride], for which testing at 1 µM gave an inhibition of 18.7%. In turn, `CN(C)C1CCN(CC(c2cccc(Cl)c2)C2CCCCCC2)CC1` (stereo not drawn) [Example 237, 1-[2-(3-chlorophenyl)-2-cycloheptylethyl]-N,N-dimethylpiperidin-4-amine dihydrochloride] came in with an inhibition at 1 µM of 81.9%. For `CN[C@H]1CCN(CC(c2ccc3ccccc3c2)C2(O)CCCCC2)C1` (stereo partly drawn) [Example 203, 1-[2-[(3S)-3-(methylamino)pyrrolidin-1-yl]-1-(2-naphthyl)ethyl]cyclohexanol dihydrochloride], 1 µM produced 59.2% inhibition. In turn, `N[C@@H]1CCN(CC(c2cccc(Cl)c2)C2(O)CCCCC2)C1` (stereo partly drawn) [Example 201, 1-[2-[(3R)-3-aminopyrrolidin-1-yl]-1-(3-chlorophenyl)ethyl]cyclohexanol dihydrochloride] came in with an inhibition at 1 µM of 37.5%. Turning to `CN[C@@H]1CCN(CC(c2ccc3ccccc3c2)C2(O)CCCCC2)C1` (stereo partly drawn) [Example 376, 1-[2-[(3R)-3-(methylamino)pyrrolidin-1-yl]-1-(2-naphthyl)ethyl]cyclohexanol dihydrochloride], 1 µM produced 30% inhibition. Molecule `CNC1CCN(CC(c2cccc(Br)c2)C2(O)CCCCC2)CC1` (stereo not drawn) [Example 19, 1-{1-(3-bromophenyl)-2-[4-(methylamino)piperidin-1-yl]ethyl}cyclohexanol dihydrochloride] had an inhibition at 1 µM of 88% and an EC50 of 88 nM. As to `CN(C)C1CCN(CC(c2cccc(C(F)(F)F)c2)C2(O)CCCCC2)CC1` (stereo not drawn) [Example 321, 1-{2-[4-(dimethylamino)piperidin-1-yl]-1-[3-(trifluoromethyl)phenyl]ethyl}cyclohexanol dihydrochloride], the inhibition at 1 µM was determined as 66.1%.

Molecule `OC1([C@H](CN2CCC(N3CCCCC3)CC2)c2cccc(OC(F)(F)F)c2)CCCCC1` [Example 366, 1-{(1S)-2-(1,4′-bipiperidin-1′-yl)-1-[3-(trifluoromethoxy)phenyl]ethyl}cyclohexanol dihydrochloride] showed an inhibition at 1 µM of 99% and an EC50 of 110 nM. The molecule `CN(C)[C@@H]1CCN(CC(c2cccc(Cl)c2)C2(O)CCCCC2)C1` (stereo partly drawn) [Example 202, 1-{1-(3-chlorophenyl)-2-[(3R)-3-(dimethylamino)pyrrolidin-1-yl]ethyl}cyclohexanol dihydrochloride] returned an inhibition at 1 µM of 74.3%. Consider `NC1CCN(CC(c2ccc(OC(F)(F)F)cc2)C2(O)CCC2)CC1` (stereo not drawn) [Example 305, 1-{2-(4-aminopiperidin-1-yl)-1-[4-(trifluoromethoxy)phenyl]ethyl}cyclobutanol dihydrochloride], for which testing at 1 µM gave an inhibition of 49.9%. For `OC1(C(CN2CCC(N3CCCCC3)CC2)c2cccc(Cl)c2)CCCCC1` (stereo not drawn) [Example 2, 1-[2-(1,4′-bipiperidin-1′-yl)-1-(3-chlorophenyl)ethyl]cyclohexanol dihydrochloride], testing at 1 µM gave an inhibition of 100% and the EC50 worked out at 45 nM. The molecule `CN[C@H]1CCCN(CC(c2cccc(OC(F)(F)F)c2)C2(O)CCCCC2)C1` (stereo partly drawn) [Example 189, 1-{2-[(3S)-3-(methylamino)piperidin-1-yl]-1-[3-(trifluoromethoxy)phenyl]ethyl}cyclohexanol dihydrochloride] registered an inhibition at 1 µM of 67.9%.

In turn, `CN[C@H]1CCN(CC(c2cccc3ccccc23)C2(O)CCCCC2)C1` (stereo partly drawn) [Example 206, 1-[2-[(3S)-3-(methylamino)pyrrolidin-1-yl]-1-(1-naphthyl)ethyl]cyclohexanol dihydrochloride] yielded an inhibition at 1 µM of 19.2%. `CN[C@@H]1CCN(CC(c2ccc(OCc3ccccc3)c(Cl)c2)C2(O)CCCCC2)C1` (stereo partly drawn) [Example 385, 1-{1-[4-(benzyloxy)-3-chlorophenyl]-2-[(3R)-3-(methylamino)pyrrolidin-1-yl]ethyl}cyclohexanol dihydrochloride] returned an inhibition at 1 µM of 65% and an EC50 of 270 nM. Molecule `COc1ccc(C(CN2CCC(N)CC2)C2(O)CCCCC2)cc1Br` (stereo not drawn) [Example 25, 1-[2-(4-aminopiperidin-1-yl)-1-(3-bromo-4-methoxyphenyl)ethyl]cyclohexanol dihydrochloride] showed an inhibition at 1 µM of 85% and an EC50 of 200 nM. Molecule `CNC1CCN(C[C@@H](c2cccc(Cl)c2)C2CCCCC2)CC1` (single isomer, unassigned) [Example 356, dihydrochloride] yielded an inhibition at 1 µM of 56%. Still for that read-out and setting: the result for `N[C@@H]1CCN(CC(c2cccc(C(F)(F)F)c2)C2(O)CCCCC2)C1` (stereo partly drawn) [Example 224, 1-{2-[(3R)-3-aminopyrrolidin-1-yl]-1-[3-(trifluoromethyl)phenyl]ethyl}cyclohexanol dihydrochloride] reads 27.5%; that for `CN(C)[C@@H]1CCN(CC(c2cccc(C(F)(F)F)c2)C2(O)CCCCC2)C1` (stereo partly drawn) [Example 225, 1-{2-[(3R)-3-(dimethylamino)pyrrolidin-1-yl]-1-[3-(trifluoromethyl)phenyl]ethyl}cyclohexanol dihydrochloride], 84%. As for `CNC1CCN(CC(c2cccc(Cl)c2)C2CCCC2)CC1` (stereo not drawn) [Example 228, 1-[2-(3-chlorophenyl)-2-cyclopentylethyl]-N-methylpiperidin-4-amine dihydrochloride], the inhibition at 1 µM was found to be 84.2%.

`OC1(C(CN2CCC(N3CCCCC3)CC2)c2cccc(Br)c2)CCCCC1` (stereo not drawn) [Example 4, 1-[2-(1,4′-bipiperidin-1′-yl)-1-(3-bromophenyl)ethyl]cyclohexanol dihydrochloride] yielded an inhibition at 1 µM of 97% and a half-maximal effective concentration (EC50) of 160 nM. Molecule `OC1(C(CN2CCC(N3CCCCC3)CC2)c2cccc(Oc3ccccc3)c2)CCCCC1` (stereo not drawn) [Example 314, 1-[2-(1,4′-bipiperidin-1′-yl)-1-[3-(phenoxyphenyl)ethyl]cyclohexanoldihydrochloride] displayed an inhibition at 1 µM of 95.5%. In the case of `NC1CCN(CC(c2cccc3ccccc23)C2(O)CCC2)CC1` (stereo not drawn) [Example 43, 1-[2-(4-aminopiperidin-1-yl)-1-(1-naphthyl)ethyl]cyclobutanol dihydrochloride], at 1 µM the inhibition was 47%. Molecule `CN(C)C1CCN(CC(c2cccc(Cl)c2)C(C)(C)O)CC1` (stereo not drawn) [Example 274, 3-(3-chlorophenyl)-4-[4-(dimethylamino)piperidin-1-yl]-2-methylbutan-2-ol dihydrochloride] yielded an inhibition at 1 µM of 50%. `COc1ccc(C(CN2CCC(N3CCCCC3)CC2)C2(O)CCCCC2)cc1Br` (stereo not drawn) [Example 8, 1-[2-(1,4′-bipiperidin-1′-yl)-1-(3-bromo-4-methoxyphenyl)ethyl]cyclohexanol dihydrochloride] yielded an inhibition at 1 µM of 95% and a half-maximal effective concentration (EC50) of 140 nM.

For orientation: inhibition means the drop in the measured response relative to a control, in per cent. A low value points to little suppression. A word on the EC50: it is the midpoint of the concentration-response curve.
